These are literature values, as cited in patent publication US6488962B1, “Tablet shapes to enhance gastric retention of swellable controlled-release oral dosage forms” (DepoMed, Inc., priority 2000, dated 2002).

For the series the following is noted: oral doses administered with or following a meal.

For `Cc1c(O)cccc1C(=O)N[C@@H](CSc1ccccc1)[C@H](O)CN1C[C@H]2CCCC[C@H]2C[C@H]1C(=O)NC(C)(C)C` [nelfinavir], the “area under the plasma concentration-time curve, with or following a meal versus without” value was “two to three times greater” and the “peak plasma concentration, with or following a meal versus without” value is given as “two to three times greater”.
